Source: patent EP0147851B1, “Water soluble forms of polyene antibiotics, and process for preparing them” (priority 1983, dated 1985)
Read-outs that look alike come from different tables or passages of the source.

What was measured:
[1] = Solubility of Nystatin in aqueous γ-CD solutions (spectrophotometric); assay type: physicochemical; conditions: for Nystatinkonzentration: 37 °C, 10 min schütteln
Protocol: Ähnlich wie im Falle des Flavofungins wurde auch für Nystatin die Löslichkeit in γ-CD-Lösungen unterschiedlicher Konzentration ermittelt. Die verwendeten wäßrigen γ-CD-Lösungen hatten Konzentrationen von 0, 1, 2,5, 4, 5, 6, 7, 8, 9, 10 und 15 %. Pro ml wurden 20 mg Nystatin zu gesetzt. Die Lösungen wurden bei 37 °C 10 Minuten lang geschüttelt, dann wurde ihr Nystatingehalt spektrophotometrisch bestimmt. Ähnlich wie bei Flavofungin wurde gefunden, daß die Löslichkeit des Nystatins in wäßrigen γ-CD-Lösungen ansteigt und in 5 %iger γ-CD-Lösung etwa das 25fache, in 10 %iger γ-CD-Lösung etwa das 40fache der ursprünglichen Wasserlöslichkeit beträgt. Die Meßergebnisse sind in der Tabelle 2 zusammengestellt.
Die aus dem anfänglich linearen Abschnitt der bei 37 °C aufgenommen Löslichkeitsisotherme berechnete scheinbare Stabilitätskonstante des Komplexes beträgt etwa 500.

Candida albicans = experiment: Biological potency of Nystatin, agar diffusion method; assay type: cell-based
Source text: Die vorhergehenden Beispiele beweisen, daß die Polyenantibiotika mit γ-Cyclodextrin Einschlußkomplexe bilden und dadurch ihre Stabilität und Wasserlöslichkeit bedeutend steigt. Entscheidend ist jedoch, ob auch die antifungale Wirkung geblieben ist. Um diese Frage zu beantworten, wurde die antifungale Wirkung der auf unterschiedliche Weise hergestellten Komplexe sowohl sofort nach der Herstellung wie auch nach Lagerung unter Bedingungen, unter denen der nicht durch Komplexbildung geschützte Wirkstoff bereits beträchtliche Aktivitätseinbußen erleidet, untersucht. • a) Flavofungin-γ-Cyclodextrin-Komplex Die antifungale Wirkung der wäßrigen Lösung dieses Komplexes wurde an 6 Spaltpilzen und 13 Fadenpilzen untersucht. Die Ergebnisse sind in der Tabelle 7 zusammengefaßt. Auf Flavofungin bezogen war die minimale Hemmkonzentration in jedem Falle 10-25 µg/ml, was der Wirksamkeit des nicht komplexgebundenen Wirkstoffes entspricht. Es ist besonders bemerkenswert, daß die Substanz auch gegen phytopathogene Fusarien wirkt, d.h. eine Anwendung gegen pilzliche Pflanzenschädlinge begründet ist. Der komplexgebundene Wirkstoff wirkt in der gleichen Konzentration wie Flavofungin. Die Untersuchungenwurden mit der Agardiffusionsmethode vorgenommen. Der Komplex hat den Vorteil, daß zum Bereiten der Lösungen keine organischen Lösungsmittel (DMF bzw. DMSO) erforderlich sind. […]

Weibliche CFY-Ratten = experiment: Mortality after subcutaneous administration in rats; assay type: in vivo; conditions: subcutan, 150 mg/kg, observation one week
Source text: (§1) • a) Die Resorption von Nystatin aus per os verabreichtem Nystatin-γ-CD-Komplex Die Resorption des Wirkstoffes wurde an Mäusen, an einem durch intravenöse Applikation einer Suspension von Candida albicans hervorgerufenen Sepsismodell untersucht. Die Sepsis verursachte innerhalb von 2-3 Tagen 100 %ige Mortalität. Den Versuchstieren wurde per os gemäß Beispiel 3 hergestellte, 8 % Nystatin enthaltende Komplex verabreicht. In einem Parallelversuch wurde Nystatin intravenös appliziert. Für beide Gruppen wurde die auf die unbehandelte Kontrolle bezogene Verlängerung der Überlebensdauer ermittelt. [formula] Wenn man diejenigen in Form des Komplexes per os verabreichten Nystatindosen mit denjenigen i.v. applizierten Nystatindosen vergleicht, die eine etwa gleiche Verlängerung der Überlebensdauer bewirkten (Tabelle 9, letzte Spalte),so läßt sich errechnen, daß aus dem Komplex durchschnittlich 6,2 % des Wirkstoffes in die Blutbahn gelangten. Bei den höchsten Dosen (i.v. 1,56 mg/kg, p.o. 25 mg/kg) ist das Zurückfallen der Überlebensdauer bereits auf die schwache Toxizität des Nystatins zurückzuführen. • b) Die Resorption von Nystatin aus subcutan appliziertem Nystatin-γ-CD-Komplex Weibliche CFY-Ratten eines durchschnittlichen Gewichtes von 180 g wurden mit Nystatin, mit Nystatin-γ-CD-Komplex (Wirkstoffgehalt9 8 %) beziehungsweise mit γ-CD behandelt. […]

[2] = Blood level after subcutaneous administration (UV spectrum of serum); assay type: in vivo, CFY-Ratten; conditions: subcutan, 200 mg/kg
Source text: as §1

[3] = test system: aus menschlichem Blut hergestellten Suspensionen roter Blutkörperchen
Source text: Dyn. 6, 408-414 [1983]) untersucht. Die Ergebnisse werden in Form der zu 50 %iger Hämolyse gehörenden Konzentrationen (EH₅₀) angegeben. […] Auch die hämolytische Wirkung einer der im Komplex gebundenen γ-CD-Menge entsprechenden Menge γ-Cyclodextrin wurde untersucht.

[4] = cited from earlier work

## C[C@@H]1[C@H](O)[C@@H](C)/C=C/C=C/CC/C=C/C=C/C=C/C=C/C(O[C@H]2O[C@H](C)[C@@H](O)[C@H](N)[C@@H]2O)CC2O[C@](O)(CC(O)C(O)CCC(O)CC(O)CC(O)CC(=O)O[C@H]1C)CC(O)C2C(=O)O (stereo partly shown) [Nystatin]
[1]; 5 %ige γ-CD-Lösung
  Löslichkeit relative to ursprüngliche Wasserlöslichkeit: ~25 fache
[1]; 10 %ige γ-CD-Lösung
  Löslichkeit relative to ursprüngliche Wasserlöslichkeit: ~40 fache
[1]; γ-CD-Konzentration 0 %
  Nystatinkonzentration: 0,20 mg/ml
[1]; γ-CD-Konzentration 1 %
  Nystatinkonzentration: 1,30 mg/ml
[1]; γ-CD-Konzentration 2,5 %
  Nystatinkonzentration: 2,36 mg/ml
[1]; γ-CD-Konzentration 4 %
  Nystatinkonzentration: 3,95 mg/ml
[1]; γ-CD-Konzentration 5 %
  Nystatinkonzentration: 4,70 mg/ml
[1]; γ-CD-Konzentration 6 %
  Nystatinkonzentration: 5,50 mg/ml
[1]; γ-CD-Konzentration 7 %
  Nystatinkonzentration: 6,30 mg/ml
[1]; γ-CD-Konzentration 8 %
  Nystatinkonzentration: 7,20 mg/ml
[1]; γ-CD-Konzentration 9 %
  Nystatinkonzentration: 8,10 mg/ml
[1]; γ-CD-Konzentration 10 %
  Nystatinkonzentration: 8,95 mg/ml
[1]; γ-CD-Konzentration 15 %
  Nystatinkonzentration: 8,20 mg/ml
Candida albicans
  biologische Aktivität: 5033 E/mg
Candida albicans; base substance treated as in Beispiel 5 (40 °C, 24 Stunden in water, lyophilised) without γ-CD
  biologische Aktivität after treatment without γ-CD: wesentlich schlechter
Weibliche CFY-Ratten
  Mortalität (animals that died): kein einziges
[2]
  Blutspiegel: nichts nachzuweisen
[3]; 70 µg/ml Nystatin
  Hämolyse: 70%
[3]; complexes berechnet als Wirkstoff
  EH₅₀ (concentration for 50 % haemolysis): 57 µg/mL
[4]; 70 %iges wäßriges Isopropanol
  Löslichkeit: 2,2 mg/ml
[4]; 75 %-iges wäßriges Äthanol
  Löslichkeit: 4 mg/mL
[4]; Methanol
  maximale Löslichkeit: 9,2-11,2 mg/ml
[4]; reines Isopropanol
  Löslichkeit: 0,62 mg/ml
[4]; reines Äthanol
  Löslichkeit: 0,55 mg/ml
[4]; zusammen mit Polyvinylpyrrolidon ausgefällt (coprecipitate)
  Löslichkeit, increase: 8-10 mal
